Reference: article PMC8802806, “Synthesis and Antitumor Activity of Erlotinib Derivatives Linked With 1,2,3-Triazole” (Frontiers in Pharmacology, 2022)
Where “and” joins values, the source holds several entries; their conditions need not be identical. Equal values may be shown once. Read-outs that look alike come from different tables or passages of the source. Each block holds one molecule with its values, some of them ahead of it.

Legend:
[1] = tested on: HeLa cells; conditions: cited from earlier work
[2] = tested on: HeLa cells; assay: Cell antiproliferative activity assay (CCK8); format: cell-based, human; conditions: Homo sapiens; for IC50: HeLa; for inhibition at 0.25 µM: 250 nM; for inhibition at 0.5 µM: 500 nM; for inhibition at 1 µM: 1000 nM; for inhibition at 2 µM: 2000 nM; for inhibition at 4 µM: 4000 nM; for inhibition at 8 µM: 8000 nM; for inhibition at 16 µM: 16000 nM
Description: Cell antiproliferative activity was evaluated by the Cell Counting Kit-8 (CCK8, DOJINDO, Japan) assay. The cells were seeded at a density of 2,000 cells per well into 96-well microplate in 100 μl of growth medium. Cells were incubated at 37°C and 5% CO2 overnight. The next day, 100 μl per well of diluted inhibitor in growth medium was added with the final concentration from 0.1 nM to 100 μM. The cells were treated with DMSO as control. A series of dilutions are made in 0.1% DMSO in assay medium so that the final concentration of DMSO is 0.1% in all of treatments. Cells were incubated at 37°C and 5% CO2 for 48 h. Then, 10 μl of CCK8 was added to each well. The plates were incubated at 37°C for 2 h; after that, the plates were recorded by measuring absorbance at 450 nm with the reference wavelength of 630 nm using an EnVision Multilabel Reader (PerkinElmer). The IC50 values were calculated using GraphPad Prism 6.0 software and determined by the concentration causing a half-maximal percent activity. All assays were conducted with three parallel samples and three repetitions.

[3] = tested on: HeLa cells; assay: Flow cytometry detection for cell apoptosis (Annexin V/PI); format: cell-based, human; conditions: for Q1 (flow cytometry quadrant, Figure 4A) / Q4 (flow cytometry quadrant, Figure 4A) / Q2: FITC-A+ , PE-A+ Freq. of Parent / Q3: FITC-A+ , PE-A- Freq. of Parent: Annexin V/PI; for Q2: FITC-A+ , PE-A+ Freq. of Parent / Q3: FITC-A+ , PE-A- Freq. of Parent / Q2+Q3 (column without head, sum on percent scale) / Q2+Q3 (as fraction): single samples
Description: Cell-apoptosis analysis was carried out by flow cytometry using the Annexin V/PI apoptosis kit (Solarbio, China) according to the manufacturer’s manual. Briefly, HeLa (5 × 10^4/well) cells were seeded in 12-well plates for 24 h and then treated with 0.1% DMSO (as control) or various concentrations of compounds 4d, 4k, and 4l for 72 h, respectively. Cells were harvested, washed with PBS, and then incubated with 100 μl of 1 × Annexin V binding buffer containing 1 μl FITC Annexin V for 10 min at RT in the dark. Cells were incubated for another 5 min at room temperature (RT) in the dark after 1 μl PI was added. PBS (200 µl) was added to each tube for flow cytometry analysis (BriCyte E6). The percentages of apoptotic cells were analyzed using FlowJo soft.

[4] = tested on: HeLa cells; assay: Colony formation assay; format: cell-based, human; conditions: for effect on cell colony formation: 2 weeks
Description: HeLa cells were seeded in six-well plates at the density of 500/well for 24 h, and then treated with 0.1% DMSO (as control), various concentrations of compounds 4d, 4k, and 4l, respectively. The cells were incubated for 2 weeks in a 5% CO2 environment at 37°C for colony formation. The media was gently removed from each of the plates, and then each plate was washed with PBS twice. The colonies were fixed with 4% polyformaldehyde for 10 min and then wash the cells with ddH2O twice. Stain with 1 ml Crystal Violet Staining Solution (Beyotime, China) for 10 min. Wash excess crystal violet with ddH2O and allow dishes to dry. Take pictures of the plate and count the colonies.

[5] = chromenocarbazole tethered 1,2,3-triazoles, ref Chavan et al., 2019, read-out: IC50 antiproliferative activity in HeLa cells
[6] = amidino 2-substituted benzimidazoles linked to 1,2,3-triazoles, ref Raic-Malic et al., read-out: IC50 antiproliferation activities against HeLa cells
[7] = 48 h, HeLa cells, CCK8, 48 h, mean ± SD, n = 3, read-out: IC50 (μM) HeLa
[8] = HELA 2000cells/well, supplement DataSheet2, Repeat1, read-out: IC50 Repeat1
[9] = HELA 2000cells/well, supplement DataSheet2, Repeat 2, read-out: IC50 Repeat 2
[10] = HELA 2000cells/well, supplement DataSheet2, mean of two repeats ± SD, read-out: IC50 mean±SD
[11] = HELA 2000cells/well, Repeat1, read-out: Inhibition (%) Repeat1
[12] = HELA 2000cells/well, Repeat2, read-out: Inhibition (%) Repeat2

Compound: Cc1ccc(Cn2cc(CN3C(=O)C4(C(C#N)=C(N)Oc5c4ccc4[nH]c6ccccc6c54)c4ccccc43)nn2)cc1 (centres unmarked) [6b]
IC50 [1, 5]: 4.05 µM

Compound: N#CC1=C(N)Oc2c(ccc3[nH]c4ccccc4c23)C12C(=O)N(Cc1cn(Cc3ccc(C(F)(F)F)cc3)nn1)c1ccccc12 (centres unmarked) [6g]
IC50 [1, 5]: 3.54 µM

Compound: N#CC1=C(N)Oc2c(ccc3[nH]c4ccccc4c23)C12C(=O)N(Cc1cn(Cc3ccc(Cl)cc3)nn1)c1ccc(Br)cc12 (centres unmarked) [6s]
IC50 [1, 5]: 3.83 µM

Compound: Cc1ccc(Cn2cc(CN3C(=O)C4(C(C#N)=C(N)Oc5c4ccc4[nH]c6ccccc6c54)c4cc(F)ccc43)nn2)cc1 (centres unmarked) [6u]
IC50 [1, 5]: 3.35 µM

Compound: CC(C)NC(=N)c1ccc2[nH]c(-c3ccc(OCc4cn(Cc5ccc(Cl)cc5)nn4)cc3)nc2c1 [10c]
IC50 [1, 6]: 17.5 µM

Compound: c1ccc(Cn2cc(COc3ccc(-c4nc5cc(C6=NCCN6)ccc5[nH]4)cc3)nn2)cc1 [11f]
IC50 [1, 6]: 6.63 µM

Compound: COc1ccc2c(-n3cc(-c4cc(OC)c(OC)c(OC)c4)nn3)c(C(=O)Nc3ccccc3)oc2c1 [17 g, 6-methoxy-N-phenyl-3-[4-(3,4,5-trimethoxyphenyl)-1H-1,2,3-triazol-1-yl] benzofuran-2 carboxamide]
IC50 ([1]; ref Qi et al., 2020, read-out: IC50 antiproliferative activities against HeLa cells): 0.73 ± 0.67 µM

IC50 [2, 7]: 7.02 ± 0.04 µM
IC50 [2, 8]: 7.07 µM
IC50 [2, 9]: 6.98 µM
IC50 [2, 10]: 7.025 ± 0.0445 µM
Compound: COCCOc1cc2ncnc(Nc3cccc(-c4cn(Cc5cc(Br)cc(Br)c5)nn4)c3)c2cc1OCCOC [Compound 4d, [6,7-Bis-(2-methoxy-ethoxy)-quinazolin-4-yl]-{3-[1-(3,5-dibromo-benzyl)-1H-[1,2,3]triazol-4-yl]-phenyl}-amine]
inhibition at 0.25 µM [2, 11]: 9.75%
inhibition at 0.25 µM [2, 12]: 0%
inhibition at 0.5 µM [2, 11]: 13%
inhibition at 0.5 µM [2, 12]: 13.6%
inhibition at 1 µM [2, 11]: 16.9%
inhibition at 1 µM [2, 12]: 14%
inhibition at 2 µM [2, 11]: 17%
inhibition at 2 µM [2, 12]: 15.3%
inhibition at 4 µM [2, 11]: 25.3%
inhibition at 4 µM [2, 12]: 26.6%
inhibition at 8 µM [2, 11]: 53.2%
inhibition at 8 µM [2, 12]: 54.6%
inhibition at 16 µM [2, 11]: 78.2%
inhibition at 16 µM [2, 12]: 78.4%
Q1 (flow cytometry quadrant, Figure 4A) ([3]; 3 μM, 72 h): 5.78%
Q4 (flow cytometry quadrant, Figure 4A) ([3]; 3 μM, 72 h): 84.2%
Q2: FITC-A+ , PE-A+ Freq. of Parent ([3]; 3 μM, 72 h): 9.25%
Q3: FITC-A+ , PE-A- Freq. of Parent ([3]; 3 μM, 72 h): 0.82%
Q2: FITC-A+ , PE-A+ Freq. of Parent ([3]; 3 μM, 72 h, listed as e4): 6.79% and 7.35% and 9.25%
Q3: FITC-A+ , PE-A- Freq. of Parent ([3]; 3 μM, 72 h, listed as e4): 1.73% and 1.08% and 0.82%
Q2+Q3 (column without head, sum on percent scale) ([3]; 3 μM, listed as e4): 8.52 and 8.43 and 10.07
Q1 (flow cytometry quadrant, Figure 4A) ([3]; 6 μM, 72 h): 5.52%
Q4 (flow cytometry quadrant, Figure 4A) ([3]; 6 μM, 72 h): 81.2%
Q2: FITC-A+ , PE-A+ Freq. of Parent ([3]; 6 μM, 72 h): 10.5%
Q3: FITC-A+ , PE-A- Freq. of Parent ([3]; 6 μM, 72 h): 2.69%
Q2: FITC-A+ , PE-A+ Freq. of Parent ([3]; 6 μM, 72 h, listed as e4): 8.90% and 10.1% and 10.5%
Q3: FITC-A+ , PE-A- Freq. of Parent ([3]; 6 μM, 72 h, listed as e4): 3.61% and 5.29% and 2.69%
Q2+Q3 (column without head, sum on percent scale) ([3]; 6 μM, listed as e4): 12.51 and 15.39 and 13.19
Q1 (flow cytometry quadrant, Figure 4A) ([3]; 12 μM, 72 h): 2.40%
Q4 (flow cytometry quadrant, Figure 4A) ([3]; 12 μM, 72 h): 5.68%
Q2: FITC-A+ , PE-A+ Freq. of Parent ([3]; 12 μM, 72 h): 86.4%
Q3: FITC-A+ , PE-A- Freq. of Parent ([3]; 12 μM, 72 h): 5.49%
Q2: FITC-A+ , PE-A+ Freq. of Parent ([3]; 12 μM, 72 h, listed as e4): 86.4% and 80.4% and 81.8%
Q3: FITC-A+ , PE-A- Freq. of Parent ([3]; 12 μM, 72 h, listed as e4): 5.49% and 3.94% and 3.82%
cell apoptosis in HeLa cells, percentage ([3]; 12 μM, 72 h, three independent experiments): 87.28%
Q2+Q3 (column without head, sum on percent scale) ([3]; 12 μM, listed as e4): 91.89 and 84.34 and 85.62
effect on cell colony formation ([4]; 6 μM): decrease the number of colonies
effect on cell colony formation ([4]; 12 μM): entirely inhibited
Number of Colonies /well ([4]; 12 uM, repeats 1-3): 0

melting point: 98 to 101 °C
IC50 [2, 7]: 3.79 ± 0.1 µM
IC50 [2, 8]: 3.89 µM
IC50 [2, 9]: 3.69 µM
IC50 [2, 10]: 3.79 ± 0.103 µM
Compound: COCCOc1cc2ncnc(Nc3cccc(-c4cn(-c5cccc([N+](=O)[O-])c5)nn4)c3)c2cc1OCCOC [Compound 4m, [6,7-Bis-(2-methoxy-ethoxy)-quinazolin-4-yl]-{3-[1-(3-nitro-phenyl)-1H-[1,2,3]triazol-4-yl]-phenyl}-amine]
inhibition at 0.25 µM [2, 11]: 0%
inhibition at 0.25 µM [2, 12]: 7.86%
inhibition at 0.5 µM [2, 11]: 3.48%
inhibition at 0.5 µM [2, 12]: 5.51%
inhibition at 1 µM [2, 11]: 8.91%
inhibition at 1 µM [2, 12]: 15.1%
inhibition at 2 µM [2, 11]: 42.2%
inhibition at 2 µM [2, 12]: 42.1%
inhibition at 4 µM [2, 11]: 54.2%
inhibition at 4 µM [2, 12]: 56.2%
inhibition at 8 µM [2, 11]: 67.5%
inhibition at 8 µM [2, 12]: 66.5%
inhibition at 16 µM [2, 11]: 77.1%
inhibition at 16 µM [2, 12]: 77.2%

melting point: 110 to 114 °C
IC50 [2, 7]: 8.21 ± 1.05 µM
IC50 [2, 8]: 7.21 µM
IC50 [2, 9]: 9.31 µM
IC50 [2, 10]: 8.21 ± 1.05 µM
Compound: CCOc1cccc(-n2cc(-c3cccc(Nc4ncnc5cc(OCCOC)c(OCCOC)cc45)c3)nn2)c1 [Compound 4n, [6,7-Bis-(2-methoxy-ethoxy)-quinazolin-4-yl]-{3-[1-(3-ethoxy-phenyl)-1H-[1,2,3]triazol-4-yl]-phenyl}-amine]
inhibition at 0.25 µM [2, 11]: 0%
inhibition at 0.25 µM [2, 12]: 2.69%
inhibition at 0.5 µM [2, 11]: 4.33%
inhibition at 0.5 µM [2, 12]: 4.33%
inhibition at 1 µM [2, 11]: 7.26%
inhibition at 1 µM [2, 12]: 6.45%
inhibition at 2 µM [2, 11]: 12.8%
inhibition at 2 µM [2, 12]: 10.8%
inhibition at 4 µM [2, 11]: 31.2%
inhibition at 4 µM [2, 12]: 18.5%
inhibition at 8 µM [2, 11]: 51.9%
inhibition at 8 µM [2, 12]: 45.5%
inhibition at 16 µM [2, 11]: 77.1%
inhibition at 16 µM [2, 12]: 69.6%
Q3: FITC-A+ , PE-A- Freq. of Parent ([3]; 3 μM, 72 h): 0.75% and 1.15% and 1.24%
Q2: FITC-A+ , PE-A+ Freq. of Parent ([3]; 6 μM, 72 h): 21.9%
Q3: FITC-A+ , PE-A- Freq. of Parent ([3]; 6 μM, 72 h): 5.30% and 1.36% and 0.76%
Q2+Q3 (as fraction) ([3]; 6 μM): 0.272 and 0.3116 and 0.2626
Q2: FITC-A+ , PE-A+ Freq. of Parent ([3]; 12 μM, 72 h): 61.9%
Q3: FITC-A+ , PE-A- Freq. of Parent ([3]; 12 μM, 72 h): 2.53% and 1.19% and 1.05%
Q2+Q3 (as fraction) ([3]; 12 μM): 0.6443 and 0.5879 and 0.6565
